Values quoted from earlier work in the CATMoS acute toxicity set (Mansouri et al. 2021).
Values joined by “and” are separate entries in the source; they are usually repeats but may differ in a detail not shown here. Identical values can stand only once.

Assay: rat acute oral toxicity
Details: in vivo

SMILES | LD50
CCN(CCC#N)c1ccc(N=Nc2nc3ccc(S(C)(=O)=O)cc3s2)c(C)c1 | 400 mg/kg
CC(=O)OCC(=O)NCCCOc1cccc(CN2CCCCC2)c1 | 755 mg/kg
O=S(=O)(Cl)c1ccccc1 | 1960 mg/kg
C=C(OP(=O)(OC)OC)c1ccc(Cl)cc1Cl | 2350 mg/kg
CCOP(=S)(OCC)Sc1nc(C)cc(C)n1 | 59 mg/kg
COc1ccccc1N1CCN(CCC(=O)c2ccc(N3CCOCC3)cc2)CC1 | 400 mg/kg
CC(C)(C)C(=O)C(Cl)Cl | 1300 mg/kg
CCC(C(=O)O)c1ccc(CC(C)C)cc1 (stereo not drawn) | 1600 mg/kg
CC(C)OP(=S)(OC(C)C)SCn1nc(Cl)ccc1=O | 190 mg/kg
CCN(CC)CCOCc1cc(Br)cc(Br)c1OC | 500 mg/kg
NCCc1c[nH]c2ccccc12 | 300 mg/kg
C/C=C1\[C@H]2C=C(C)C[C@]1(N)c1ccc(=O)[nH]c1C2 | 15 mg/kg
Clc1ccc(OCOc2ccc(Cl)cc2)cc1 | 5800 mg/kg
OCCc1ccncc1 | 3500 mg/kg
C[C@H]1CCCCN1N=O | 600 mg/kg
CN(C)CCCCCNc1c2ccccc2nc2cccc([N+](=O)[O-])c12 | 63.3 mg/kg
CCCCOCCC#N | 7460 mg/kg
CCN1CC(CC(N)=O)CC2c3cccc4[nH]cc(c34)CC21 (stereo not drawn) | 38.5 mg/kg
COc1ccc2c(c1)OC(C)(C)C(c1ccccc1)=C2c1ccc(OCC(O)CNC(C)C)cc1 (stereo not drawn) | 1000 mg/kg
CCCCCCCCOC(=O)Oc1ccc([N+](=O)[O-])cc1[N+](=O)[O-] | 196 mg/kg
Cc1nc(C(C)C)c(=O)[nH]c1C | 903 mg/kg
CC1NC(=S)NC1=O (stereo not drawn) | 1050 mg/kg
C=C(C)CNc1ccc(C(C)C(=O)O)cc1 (stereo not drawn) | 550 mg/kg
CC(C)C(Br)C(=O)O (stereo not drawn) | 769 mg/kg
CCCCSC(=Nc1cccnc1)SCc1ccc(C(C)(C)C)cc1 | 2700 mg/kg
CC(C)(C)NC[C@H](O)COc1ccccc1C1CCCC1 | 1260 mg/kg

SMILES | LD50
Cc1ccc2ccccc2c1N | 620 mg/kg
CCCC(=O)OC(=C(Cl)Cl)P(=O)(OC)OC | 1100 mg/kg
CNC(=O)Oc1cc(C)ccc1C(C)C | 500 mg/kg
CN(C)C(=O)NC1CCCCCCC1 | 1500 mg/kg
Nc1nc2c(Cl)cccc2o1 | 500 mg/kg
CNC(=O)ON=C1CCCC1(C)C#N (stereo not drawn) | 18 mg/kg
O=NN1CN(N=O)CN(N=O)C1 | 160 mg/kg
CC(C)OCCCO | 4000 mg/kg
COP(=S)(OC(C)C)SCN1C(=O)c2ccccc2C1=O (stereo not drawn) | 50 mg/kg
O=C1C(=O)c2ncccc2-c2cccnc21 | 5 mg/kg
FC(F)(F)c1nc2cc(Cl)c(Cl)cc2[nH]1 | 7.88 mg/kg
Clc1cc(Cl)c(Cl)cc1Cl | 1500 mg/kg
CNC(=O)ON=C1SCCOC1C (stereo not drawn) | 6 mg/kg
C=CCC1(C(C)CC)C(=O)NC(=O)NC1=O (stereo not drawn) | 57.5 mg/kg
O=C1c2cccc(S(=O)(=O)O)c2C(=O)c2cccc(S(=O)(=O)O)c21 | 2360 mg/kg
C=CCOC=O | 124 mg/kg
CC(C)C(=O)OC1CCC(N2CCCCC2)CC1 (stereo not drawn) | 3150 mg/kg
CCCCC(CC)COS(=O)(=O)O (stereo not drawn) | 4120 mg/kg
CN1CCN(C2=Nc3ccccc3Sc3ccc(Cl)cc32)CC1 | 280 mg/kg
CN(C)CCCN1c2ccccc2CCc2ccc(Cl)cc21 | 914 mg/kg and 613 mg/kg
Nc1ccc(S(=O)(=O)O)c2cccc(S(=O)(=O)O)c12 | 56000 mg/kg
CNC(=C[N+](=O)[O-])NCCSCc1csc(CN(C)C)n1 | 1650 mg/kg
c1ccc(N2CCOCC2)cc1 | 930 mg/kg
Cc1sc2ccccc2c1CC1=NCCN1 | 74 mg/kg
C[C@H](CS)C(=O)N1CCC[C@H]1C(=O)O | 4240 mg/kg
CNC(=O)ON=C1SC(C)C(=O)NC1(C)C (stereo not drawn) | 0.884 mg/kg

SMILES | LD50
c1ccc(C(N2CCOCC2)N2CCOCC2)cc1 | 5060 mg/kg
C[Si](Cl)(Cl)Cl | 800 mg/kg
CN(C)C(=O)C(CCN1CCC(O)(c2ccc(Cl)c(C(F)(F)F)c2)CC1)(c1ccccc1)c1ccccc1 | 86 mg/kg
Oc1cc(Cl)c(Cl)cc1Cl | 1620 mg/kg
COc1ccc(C(N)=O)cc1C(=O)NCc1cccnc1 | 1720 mg/kg
CC[N+](CC)(CCNC(=O)C(=O)NCC[N+](CC)(CC)Cc1ccccc1Cl)Cc1ccccc1Cl | 18.5 mg/kg
CCOP(=S)(Oc1ccc([N+](=O)[O-])cc1)Oc1ccc([N+](=O)[O-])cc1 | 66.9 mg/kg
CC(C)(OO)c1ccccc1 | 382 mg/kg
C=C(O)C(=O)O | 10000 mg/kg
C=CCON/C(CCC)=C1\C(=O)CC(C)(C)C(C(=O)OC)C1=O (stereo not drawn) | 2260 mg/kg
CCOC(=O)c1c(N)sc2c1CCN(Cc1ccccc1)C2 | 1200 mg/kg
Cc1ccc(N=C=O)cc1N=C=O | 5800 mg/kg
COc1ccc2c(=O)c(C)c(C)oc2c1CN(C)C | 7.8 mg/kg
C=C(C)C(=O)OCCCl | 200 mg/kg
Cc1cnccn1 | 1800 mg/kg
CN1[C@@H]2CC[C@H]1C[C@@H](OC1c3ccccc3CCc3ccccc31)C2 | 445 mg/kg
Cc1cc(N(C)C)nc(Cl)n1 | 1.25 mg/kg
CC(C)(C)CON=CC1C(C(=O)OC(C#N)c2cccc(Oc3ccccc3)c2)C1(C)C (stereo not drawn) | 143 mg/kg
CC1OC1C1CCC2(C)OC2C1 (stereo not drawn) | 5630 mg/kg
CCOC(=O)C(C#N)C(=O)Cc1c(C)n(C(=O)c2ccc(Cl)cc2)c2ccc(OC)cc12 (stereo not drawn) | 82 mg/kg
CCCCOCCCOC(=O)COc1ccc(Cl)cc1Cl | 500 mg/kg
C=CCSSCC=C | 260 mg/kg
CCCCOCCOCCOCCCC | 3900 mg/kg
CO[C@H]1CC[C@H](O[C@@H]2C[C@]3(C[C@H](O)[C@@H](C)[C@@H]([C@@H](C)C=C(C)C(=O)[C@H](C)C[C@H](C)C(=O)O)O3)O[C@]2(C)[C@H]2CC[C@@H](C)C3(O[C@@H]([C@@H]4O[C@](O)(CO)[C@@H](C)C[C@H]4C)C[C@@H]3C)O2)O[C@@H]1C (stereo partly drawn) | 7.5 mg/kg
COP(=O)(OC)C(OC(C)=O)=C(Cl)Cl | 300 mg/kg
C=Cc1ccc(OC(C)=O)cc1 | 1500 mg/kg

SMILES | LD50
CN1CC(CC#N)CC2c3cccc4[nH]c(Cl)c(c34)CC21 (stereo not drawn) | 290 mg/kg
c1ccc(N2CCNCC2)cc1 | 210 mg/kg
COCCOC(=O)C=CC(=O)OCCOC | 3340 mg/kg
CCCCCCCCCCCCN(C)C | 800 mg/kg
COP(=S)(OC)Oc1cc(Cl)c(I)cc1Cl | 2330 mg/kg
CCOC(=O)/C=C/C(=O)OCC | 1780 mg/kg
Cc1cccc(C(=O)c2ccccc2)c1C | 4920 mg/kg
CCCOC(C1=NCCCN1)c1ccccc1 (stereo not drawn) | 625 mg/kg
CC(=O)Oc1c(C)ncc2c1COC(C(C)C)OC2 (stereo not drawn) | 2850 mg/kg
COC(=O)C(=O)C(O)=C(O)OC | 8000 mg/kg
CC(=O)ON(C(=O)OC(C)C)c1ccccc1 | 3400 mg/kg
CNC(=O)ON=C1SCCOC1(C)C | 0.6 mg/kg
CCCCOC(=O)COC(=O)c1ccccc1C(=O)OCCCC | 7000 mg/kg
COC1=CC(=O)OC(C=CC2=CCCC=C2)C1 (stereo not drawn) | 16000 mg/kg
CNCC12CCC(c3ccccc31)c1ccccc12 | 700 mg/kg and 600 mg/kg
NC(=O)ON=C1CSCCS1 | 52 mg/kg
CCc1c(C)[nH]c2c1C(=O)C(CN1CCC3(CC1)OCCO3)CC2 (stereo not drawn) | 240 mg/kg
CCOC(=O)C(C)(CC)Oc1ccc(Cc2ccc(Cl)cc2)cc1 (stereo not drawn) | 9000 mg/kg
CCOCCOCC(C)O (stereo not drawn) | 9330 mg/kg
Cc1cc2c(C(C)C)c(O)c(O)c(C=O)c2c(O)c1-c1c(C)cc2c(C(C)C)c(O)c(O)c(C=O)c2c1O | 2320 mg/kg
CN1C(C(=O)Nc2ccccn2)=C(OC(=O)C(C)(C)C)c2sc(Cl)cc2S1(=O)=O | 24.6 mg/kg
S=C1N=CC=NC(=S)SSSS1 | 8530 mg/kg
O=C1OC(=O)c2ccc3c4c(ccc1c24)C(=O)OC3=O | 7400 mg/kg
CCCCCCCCCCCO | 3000 mg/kg
Nc1nc(N)c2cc(N(Cc3ccc(Cl)c(Cl)c3)N=O)ccc2n1 | 317 mg/kg
